# Assay results taken from patent US20180116993A1, “MODULATORS OF FARNESOID X RECEPTOR AND METHODS FOR THE USE THEREOF” (XIAMEN UNIVERSITY, priority 2015, published 2018).
# Like-named read-outs stand apart in the source and are kept apart here. Marks after values point to notes of the source that are not given here.
# What was measured:
# [1] = tested on: human colorectal adenocarcinoma HCT15 cells; assay: MTT cell viability assay, HCT15; type: cell-based; conditions: 48 h, read-out: Cell viability as a percentage of the cells treated with DMSO, HCT15; for viability at 20 µM: HCT-15, 20 uM; for viability at 40 µM: HCT-15, 40 uM
# Method in brief: (§1)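 Cells cultured in DMEM with 10% FBS were treated with compounds at 20 uM or 40 uM. Viability was read by MTT and expressed as a percentage of DMSO-treated cells.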
# full-length FXR = target: T1, full-length FXR (Homo sapiens, UniProt Q96RI1); assay: Cell-based FXR transactivation, EcRE luciferase reporter in COS-7 cells; conditions: for Cell-based FXR transactivation Fold changes by 5 μM compound: positive: induction, minus: repression; for EC50 / fold induction at 5 µM: EcRE luciferase reporter; for Cell-based FXR transactivation Fold changes by 5 μM compound / fold induction at 5 µM: 5 μM compound
# T1 construct: The cells were co-transfected with plasmids encoding full-length FXR and the cognate luciferase reporter EcRE-Luc; expressed in transfected cells; host or cells: COS-7
# T1 sequence (Q96RI1 1-486): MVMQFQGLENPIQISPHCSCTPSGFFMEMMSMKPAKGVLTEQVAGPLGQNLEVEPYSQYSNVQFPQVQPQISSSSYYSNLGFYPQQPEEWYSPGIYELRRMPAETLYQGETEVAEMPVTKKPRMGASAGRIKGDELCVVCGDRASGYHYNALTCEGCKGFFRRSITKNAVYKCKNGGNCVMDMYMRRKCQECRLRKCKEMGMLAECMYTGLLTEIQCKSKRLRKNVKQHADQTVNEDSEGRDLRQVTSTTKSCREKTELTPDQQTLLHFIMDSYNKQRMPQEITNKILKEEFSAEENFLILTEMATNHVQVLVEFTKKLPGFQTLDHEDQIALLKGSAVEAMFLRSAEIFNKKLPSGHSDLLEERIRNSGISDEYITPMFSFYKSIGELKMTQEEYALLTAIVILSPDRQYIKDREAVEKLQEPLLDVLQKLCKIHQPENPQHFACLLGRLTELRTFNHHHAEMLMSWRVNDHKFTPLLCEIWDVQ
# Method in brief: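 COS-7 cells were transiently cotransfected with full-length FXR, EcRE-Luc reporter and a renilla control. Ligands were added 5 h after transfection, and cells were harvested 24 h later. Firefly luciferase was normalized to renilla in a dual-luciferase read-out.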
# [2] = tested on: human hepatoma HepG2 cells; assay: MTT cell viability assay, HepG2; type: cell-based; conditions: 48 h, read-out: Cell viability as a percentage of the cells treated with DMSO, HepG2
# Method in brief: as §1
# [3] = target: T2, FXR ligand binding domain (LBD) (Homo sapiens, UniProt Q96RI1); assay: AlphaScreen assay: FXR LBD recruitment of coregulator peptide motifs (SRC2-3, SRC1-2); type: biochemical
# T2 construct: made in house
# T2 sequence (Q96RI1 262-486 limits assumed): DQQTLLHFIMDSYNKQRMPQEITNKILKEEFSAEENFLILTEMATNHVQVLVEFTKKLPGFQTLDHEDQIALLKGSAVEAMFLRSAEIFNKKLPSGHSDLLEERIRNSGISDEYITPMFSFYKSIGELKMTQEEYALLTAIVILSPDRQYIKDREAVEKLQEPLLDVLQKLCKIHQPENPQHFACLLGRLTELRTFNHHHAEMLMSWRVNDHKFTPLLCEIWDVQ
# [4] = tested on: human breast cancer MCF7 cells; assay: MTT cell viability assay, MCF-7; type: cell-based; conditions: 48 h, read-out: Cell viability as a percentage of the cells treated with DMSO, MCF-7
# Method in brief: as §1
# db/db mice = assay: Hepatic triglyceride, liver histology, serum ALT and ALP in high-fat diet fed db/db mice; type: in vivo, mouse; conditions: for Hepatic triglyceride (mM/g): vehicle 148 ± 14
# Method in brief: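 High-fat diet fed db/db mice aged 8-10 weeks dosed 10 mg/kg compound once daily for 10 days. Liver sections stained with H&E and 0.3% oil red O; hepatic triglyceride measured by tissue assay kit; serum ALP and ALT activities measured by kit.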
# [5] = tested on: RA-resistant human colon cancer HCT116 cells; assay: MTT cell viability assay, HCT116; type: cell-based; conditions: 48 h, read-out: Cell viability as a percentage of the cells treated with DMSO, HCT116; for viability at 20 µM: HCT-116, 20 uM; for viability at 40 µM: HCT-116, 40 uM
# Method in brief: as §1
# [6] = tested on: human cervical carcinoma Hela cells; assay: MTT cell viability assay, Hela; type: cell-based; conditions: 48 h, read-out: Cell viability as a percentage of the cells treated with DMSO, Hela
# Method in brief: as §1
# [7] = SRC1-2 peptide, Table 2, read-out: EC50 (μM) of FXR binding by AlphaScreen assay recruit SRC1-2
# [8] = SRC2-3 peptide, Table 2, read-out: EC50 (μM) of FXR binding by AlphaScreen assay recruit SRC2-3
# [9] = 10 mg/kg for 10 days, vehicle 377 ± 48, Table 15
# [10] = SRC1-2 peptide, Table 1, read-out: EC50 (μM) of FXR binding by AlphaScreen assay recruit SRC1-2
# [11] = SRC2-3 peptide, Table 1, read-out: EC50 (μM) of FXR binding by AlphaScreen assay recruit SRC2-3
SMILES,viability at 20 µM [1] [%],viability at 40 µM [1] [%],Cell-based FXR transactivation Fold changes by 5 μM compound (full-length FXR; Table 2),EC50 (full-length FXR; Table 2) [µM],viability at 20 µM [2] [%],viability at 40 µM [2] [%],"EC50 [3, 7] [µM]","EC50 [3, 8] [µM]",viability at 20 µM [4] [%],viability at 40 µM [4] [%],viability at 20 µM [5] [%],viability at 40 µM [5] [%],viability at 20 µM [6] [%],viability at 40 µM [6] [%],fold induction at 5 µM (full-length FXR; Table 1),EC50 (full-length FXR; Table 1) [µM],"EC50 [3, 10] [µM]","EC50 [3, 11] [µM]",also measured
"CC1(C)C2CCC1(C)C(OC(=O)c1ccncc1)C2 (stereo not drawn) [XD-6, 1,7,7-trimethyl-bicyclo[2.2.1]-heptan-2-yl isonicotinate]",57 ± 2,42 ± 3,>10,1 to 10,99 ± 1,70 ± 2,1 to 10,1 to 10,100 ± 8,61,61 ± 1,45 ± 2,100 ± 1,76 ± 1,–,–,–,–,Hepatic triglyceride (mM/g) (db/db mice; 10 mg/kg for 10 days): 90 ± 11^b mM/g; Serum ALT (U/L) (db/db mice; [9]): 101 ± 28 ^a U/L
"Cc1cc(C(=O)OC2CCC3CCCCC3C2)ccc1[N+](=O)[O-] (stereo not drawn) [XD-35, decahydro-naphthalen-2-yl 3-methyl-4-nitro-benzoate]",100 ± 2,93 ± 2,2,1 to 10,100 ± 2,93 ± 2,–,1 to 10,100 ± 2,100 ± 2,95 ± 2,93 ± 2,94 ± 2,93 ± 2,–,–,–,–,–
COc1cc(C(=O)O[C@H]2C[C@H]3CC[C@]2(C)C3(C)C)ccc1O [Tschimganine],100 ± 1,80 ± 9,–,–,100 ± 1,97 ± 3,–,–,100 ± 3,99 ± 3,97 ± 1,90 ± 4,98 ± 2,97 ± 4,> 10,< 1,< 1,< 1,–
"Nc1ccc(C(=O)OC2CCC3CCCCC3C2)cc1 (stereo not drawn) [XD-23, decahydro-naphthalen-2-yl 4-aminobenzoate]",81 ± 2,48 ± 2,−30,< 1,100 ± 2,100 ± 2,< 0.5,< 0.5,100 ± 2,98 ± 2,75 ± 2,72 ± 2,100 ± 2,95 ± 3,–,–,–,–,–
C/C1=C\CCC(C)(O)/C=C/C(C(C)C)C(OC(=O)c2ccc(O)cc2)C1 (stereo not drawn) [Feroline],100 ± 2,76 ± 6,–,–,84,65 ± 3,–,–,92 ± 13,86 ± 12,100 ± 5,80 ± 2,83,67 ± 3,> 10,< 1,< 1,< 1,–
"Nc1ccc(C(=O)OC2CCCCCCC2)cc1 [XD-16, cyclooctyl 4-aminobenzoate]",–,–,5,< 1,–,–,< 1,< 1,–,–,–,–,–,–,–,–,–,–,"Hepatic triglyceride (mM/g) (db/db mice; 10 mg/kg for 10 days): 81 ± 23 ^a mM/g; Serum ALT (U/L) (db/db mice; [9]): 104 ± 33 ^a U/L; Serum ALP (U/L) (db/db mice; 10 mg/kg once daily for 10 days, vehicle 129 ± 15): 88 ± 10^b U/L; Serum ALT (U/L) (db/db mice; 10 mg/kg once daily for 10 days, vehicle 377 ± 48, Table 17): 104 ± 33^a U/L"
"O=C(OC1CCCCCCC1)c1ccc(O)cc1 [XD-10, cyclooctyl 4-hydroxybenzoate]",60 ± 4,41 ± 4,–,–,90 ± 3,35 ± 1,–,–,93 ± 7,28,92 ± 6,30 ± 4,90 ± 4,40 ± 3,8,< 1,< 1,< 1,–
CC1(C)[C@@H]2CC[C@@]1(C)[C@@H](OC(=O)c1ccc(O)cc1)C2 [Tschimgine],97 ± 6,31 ± 2,–,–,97,30 ± 3,–,–,93,32,93 ± 4,25 ± 5,94,31 ± 4,> 10,< 1,< 1,< 1,–
"CC1(C)C2CCC1(C)C(OC(=O)c1ccc(N)cc1)C2 (stereo not drawn) [XD-5, 1,7,7-trimethyl-bicyclo[2.2.1]-heptan-2-yl 4-aminobenzoate]",80 ± 4,30 ± 4,>10,< 1,95 ± 1,40 ± 1,< 1,< 1,100 ± 3,20,88 ± 2,30 ± 3,93 ± 4,46 ± 3,–,–,–,–,–
"Cc1cc(C(=O)OC2CC3CCC2(C)C3(C)C)ccc1N (stereo not drawn) [XD-4, 1,7,7-trimethyl-bicyclo[2.2.1]-heptan-2-yl 4-amino-3-methylbenzoate]",79 ± 2,41 ± 3,>10,< 1,90 ± 5,42 ± 1,< 1,< 1,100 ± 9,23,81 ± 2,27 ± 1,95 ± 4,36 ± 2,–,–,–,–,–
COc1cc(C(=O)OC2C/C(C)=C/CC/C(C)=C/[C@@H](O)[C@H]2C(C)C)ccc1O (stereo partly drawn) [Tschimganidine],85 ± 9,60 ± 10,–,–,94,48 ± 4,–,–,100 ± 4,85,95 ± 4,40 ± 7,96,30 ± 5,> 10,< 1,< 1,< 1,–
"COc1cc(C(=O)OC2CCC3CCCCC3C2)ccc1[N+](=O)[O-] (stereo not drawn) [XD-36, decahydro-naphthalen-2-yl 3-methoxy-4-nitrobenzoate]",100 ± 3,92 ± 3,3,1 to 10,100 ± 3,81 ± 3,–,1 to 10,100 ± 3,87,93 ± 3,91 ± 3,93 ± 3,85 ± 3,–,–,–,–,–
